Reference: the supplement of paper PMC4862054

Tests used:
Settings in all cases: 72 h
CAL-148 [1] = system: CAL-148
Outline: (§1)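 In this assay, breast cancer cell lines spent 72 h with compound at 5 concentrations in 10-fold steps over a compound-specific 10,000-fold range. The first readout was cell death by CellTox Green fluorescence, and the second was viability by CellTiter-Glo luminescence, each normalised per plate to 0.1 % DMSO and a positive kill control. EC50 came from the dose-response curves, censored at the top concentration.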

CAL-85-1 [2] = system: CAL-85-1
Outline: as §1

HCC1599 = system: HCC1599
Outline: as §1

HCC1937 [3] = system: HCC1937
Outline: as §1

HDQ-P1 [4] = system: HDQ-P1
Outline: as §1

MDA-MB-453 [5] = system: MDA-MB-453
Outline: as §1

BT-474 [6] = system: BT-474
Outline: (§2)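 Viability of breast cancer cell lines was measured with CellTiter-Blue after 72 h of incubation on compound-loaded 384-well plates. Cells were seeded in 20 µl onto compound dissolved in 5 µl medium, and 2.5 µl reagent was added for 2 h at 37 °C before reading at 560/590 nm. EC50 was fitted from percent-inhibition dose-response data censored at the highest concentration, normalised per plate to vehicle and a positive kill control, with zero drug sensitivity score rows dropped.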

HCC1937 [7] = system: HCC1937; remark: listed apart in the source
Outline: as §2

Hs578T [8] = system: Hs578T
Outline: as §2

MDA-MB-231 [9] = system: MDA-MB-231
Outline: as §2

MDA-MB-468 [10] = system: MDA-MB-468
Outline: as §2

SK-BR-3 = system: SK-BR-3
Outline: as §2

BT-474 [11] = system: BT-474; remark: listed apart in the source
Method: (§3)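 Drug sensitivity and resistance testing (DSRT) of breast cancer cell lines in 384-well plates, 5 concentrations in 10-fold dilutions over a compound-specific 10,000-fold range. After 72 h, cytotoxicity was read by CellTox Green fluorescence and viability by CellTiter-Glo luminescence (multiplexed), normalised to DMSO and benzethonium chloride controls. EC50 is the inflection point of the fitted dose-response curve (bottom asymptote free, so it can be relative for partial curves) and is censored at the highest tested concentration. Rows with DSS 0 (no meaningful response) were excluded.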

BT-549 = system: BT-549
Method: as §3

CAL-148 [12] = system: CAL-148; remark: listed apart in the source
Method: as §3

CAL-51 = system: CAL-51
Method: as §3

CAL-85-1 [13] = system: CAL-85-1; remark: listed apart in the source
Method: as §3

HCC1937 [14] = system: HCC1937; remark: listed apart in the source
Method: as §3

HDQ-P1 [15] = system: HDQ-P1; remark: listed apart in the source
Method: as §3

Hs578T [16] = system: Hs578T; remark: listed apart in the source
Method: as §3

MDA-MB-231 [17] = system: MDA-MB-231; remark: listed apart in the source
Method: as §3

CAL-120 = system: CAL-120
Method: as §3

MDA-MB-436 = system: MDA-MB-436
Method: as §3

MDA-MB-453 [18] = system: MDA-MB-453; remark: listed apart in the source
Method: as §3

MDA-MB-468 [19] = system: MDA-MB-468; remark: listed apart in the source
Method: as §3

HCC1143 = system: HCC1143
Method: as §3

MFM-223 = system: MFM-223
Method: as §3

MCF-10A = system: MCF-10A
Method: as §3

| SMILES | EC50, CellTiter-Glo (HCC1937 [3]) | EC50, CellTiter-Glo (MDA-MB-453 [5]) | EC50, CellTiter-Blue viability (BT-474 [6]) | EC50, CellTiter-Blue viability (HCC1937 [7]) | EC50, CellTiter-Blue viability (MDA-MB-231 [9]) | EC50, CellTiter-Blue viability (MDA-MB-468 [10]) | EC50, CellTiter-Blue viability (SK-BR-3) | EC50, CellTiter-Glo (CAL-148 [1]) | EC50, CellTiter-Glo (CAL-85-1 [2]) | EC50, CellTiter-Glo (HDQ-P1 [4]) | EC50, CellTiter-Blue viability (Hs578T [8]) | EC50, CellTox Green (BT-549) | EC50, CellTox Green (CAL-51) | EC50, CellTox Green (CAL-85-1 [13]) | EC50, CellTox Green (HDQ-P1 [15]) | EC50, CellTox Green (MDA-MB-231 [17]) | EC50, CellTox Green (CAL-120) | EC50, CellTox Green (MDA-MB-468 [19]) | also measured |
| --- | --- | --- | --- | --- | --- | --- | --- | --- | --- | --- | --- | --- | --- | --- | --- | --- | --- | --- | --- |
| COc1ccc(-c2cc3c(C)nc(N)nc3n([C@H]3CC[C@H](OCCO)CC3)c2=O)cn1 | 444 nM | 115 nM | 193 nM | 63 nM | 144 nM | 268 nM | 40.5 nM | 294 nM | 229 nM | 190 nM | 158 nM | 3870 nM | 783 nM | 4090 nM | 1990 nM | 575 nM | – | – | EC50, CellTiter-Glo (HCC1599): 402 nM; EC50, CellTox Green (BT-474 [11]): 983 nM; EC50, CellTox Green (CAL-148 [12]): 787 nM; EC50, CellTox Green (HCC1937 [14]): 5410 nM; EC50, CellTox Green (Hs578T [16]): 6070 nM |
| Cn1cc(CNCC2CCN(c3ncc(C(=O)NO)cn3)CC2)c2ccccc21 | – | – | 17 nM | 33.6 nM | 47.8 nM | 38.9 nM | 5.33 nM | – | – | – | 65.1 nM | – | – | – | – | – | – | – | – |
| O=C(NC[C@H](O)CO)c1ccncc1Nc1ccc(I)cc1F | – | – | – | – | 19.7 nM | – | – | – | – | – | – | – | – | – | – | – | – | – | – |
| CC/C(=C(\c1ccc(O)cc1)c1ccc(OCCN(C)C)cc1)c1ccccc1 [4-hydroxytamoxifen] | 5190 nM | 6910 nM | – | – | – | – | – | – | 3340 nM | – | – | – | – | 7760 nM | – | 4260 nM | 9170 nM | 92.3 nM | EC50, CellTox Green (HCC1937 [14]): 1930 nM; EC50, CellTox Green (MDA-MB-436): 2800 nM; EC50, CellTox Green (MDA-MB-453 [18]): 9550 nM |
| COc1cc(CCc2cc(NC(=O)c3ccc(N4CC(C)NC(C)C4)cc3)n[nH]2)cc(OC)c1 (configuration not stated) [AZD4547] | – | – | – | – | – | – | – | – | – | – | – | – | – | – | – | – | > 1000 nM | – | – |
| CC(=O)OC[C@H]1O[C@@H]([S-])[C@H](OC(C)=O)[C@@H](OC(C)=O)[C@@H]1OC(C)=O.CCP(CC)CC.[Au+] [Auranofin] | 552 nM | 612 nM | – | – | – | – | – | 2190 nM | 723 nM | 1120 nM | – | 712 nM | 186 nM | 917 nM | 694 nM | 1330 nM | > 2500 nM | 412 nM | EC50, CellTiter-Glo (HCC1599): 2110 nM; EC50, CellTox Green (BT-474 [11]): 646 nM; EC50, CellTox Green (CAL-148 [12]): 2060 nM; EC50, CellTox Green (HCC1143): > 2500 nM; EC50, CellTox Green (HCC1937 [14]): 926 nM; EC50, CellTox Green (MDA-MB-453 [18]): 1590 nM; EC50, CellTox Green (MFM-223): 958 nM |
| CCC/C=C/C=C/C(=O)O[C@H]1/C(=C/C(=O)OC)C[C@H]2C[C@H]([C@@H](C)O)OC(=O)C[C@H](O)C[C@@H]3C[C@H](OC(C)=O)C(C)(C)[C@](O)(C[C@@H]4C/C(=C/C(=O)OC)C[C@H](/C=C/C(C)(C)[C@]1(O)O2)O4)O3 [Bryostatin 1] | – | – | – | – | – | – | 155 nM | – | – | – | – | – | – | – | 0.9 nM | – | – | – | – |
| CO[C@@H](C(=O)N1Cc2[nH]nc(NC(=O)c3ccc(N4CCN(C)CC4)cc3)c2C1)c1ccccc1 [Danusertib] | – | – | – | 344 nM | 1180 nM | 71.9 nM | – | 448 nM | – | 7430 nM | 1040 nM | > 10000 nM | 348 nM | – | 6850 nM | – | 5630 nM | 10.2 nM | EC50, CellTox Green (Hs578T [16]): 477 nM; EC50, CellTox Green (MCF-10A): > 10000 nM; EC50, CellTox Green (MDA-MB-436): 216 nM |
| Cc1nc(Nc2ncc(C(=O)Nc3c(C)cccc3Cl)s2)cc(N2CCN(CCO)CC2)n1 [Dasatinib] | 54.7 nM | – | – | – | 16.8 nM | – | – | – | 79.4 nM | 18.3 nM | 49.7 nM | 162 nM | 10.3 nM | 108 nM | – | 515 nM | – | – | EC50, CellTox Green (Hs578T [16]): 277 nM; EC50, CellTox Green (MCF-10A): 599 nM |
| O=S(=O)(c1cccc2cnccc12)N1CCCNCC1 [Fasudil] | – | 27400 nM | – | – | – | – | – | – | – | – | – | – | – | – | – | – | – | – | – |

Further lines, with some results ahead:

| EC50, CellTiter-Glo (HCC1937 [3]) | EC50, CellTiter-Glo (MDA-MB-453 [5]) | EC50, CellTiter-Blue viability (BT-474 [6]) | EC50, CellTiter-Blue viability (HCC1937 [7]) | EC50, CellTiter-Blue viability (MDA-MB-231 [9]) | EC50, CellTiter-Blue viability (MDA-MB-468 [10]) | EC50, CellTiter-Blue viability (SK-BR-3) | SMILES | EC50, CellTiter-Glo (CAL-148 [1]) | EC50, CellTiter-Glo (CAL-85-1 [2]) | EC50, CellTiter-Glo (HDQ-P1 [4]) | EC50, CellTiter-Blue viability (Hs578T [8]) | EC50, CellTox Green (BT-549) | EC50, CellTox Green (CAL-51) | EC50, CellTox Green (CAL-85-1 [13]) | EC50, CellTox Green (HDQ-P1 [15]) | EC50, CellTox Green (MDA-MB-231 [17]) | EC50, CellTox Green (CAL-120) | EC50, CellTox Green (MDA-MB-468 [19]) | also measured |
| --- | --- | --- | --- | --- | --- | --- | --- | --- | --- | --- | --- | --- | --- | --- | --- | --- | --- | --- | --- |
| – | – | 1630 nM | 257 nM | 503 nM | 841 nM | 267 nM | O=C(Nc1c[nH]nc1-c1nc2ccc(CN3CCOCC3)cc2[nH]1)NC1CC1 [AT9283] | – | – | 303 nM | 337 nM | – | 0.88 nM | – | – | 24.6 nM | 192 nM | 0.51 nM | – |
| – | – | 770 nM | 958 nM | 2240 nM | 1650 nM | 158 nM | CS(=O)(=O)N1CCN(Cc2cc3nc(-c4cccc5[nH]ncc45)nc(N4CCOCC4)c3s2)CC1 [GDC-0941] | – | – | – | 1460 nM | – | – | – | – | – | – | – | – |
| 3130 nM | 226 nM | 318 nM | 214 nM | 90.4 nM | 704 nM | 81.8 nM | Cc1c(CN2CCN(C(=O)[C@H](C)O)CC2)sc2c(N3CCOCC3)nc(-c3cnc(N)nc3)nc12 [GDC-0980] | 701 nM | 628 nM | 452 nM | 257 nM | – | 2320 nM | 3200 nM | 8340 nM | – | – | – | EC50, CellTiter-Glo (HCC1599): 1340 nM; EC50, CellTox Green (BT-474 [11]): 1390 nM; EC50, CellTox Green (CAL-148 [12]): 820 nM; EC50, CellTox Green (HCC1143): 1460 nM; EC50, CellTox Green (MFM-223): 1000 nM |
